Test results: PMC12211128, “Safety, tolerability, pharmacokinetic and pharmacodynamic effects of the muscarinic M1 positive allosteric modulator VU0467319 for Alzheimer’s disease: a single ascending-dose study in healthy participants” (Alzheimer's Research & Therapy, 2025)
“Also recorded” adds a separate entry of the source. Marks after values point to notes of the source that are not given here.

Legend:
healthy participants [1] = experiment: Treatment emergent adverse event (TEAE) monitoring; type: in vivo, human
Method: Safety and tolerability were assessed throughout the study via treatment emergent adverse event (TEAE) monitoring, vital signs (blood pressure, pulse rate, respiration rate, oral temperature), physical examinations, 12-lead ECGs, and clinical laboratory parameters including complete blood count (CBC), coagulation, hematology, clinical chemistry assessments, and urinalysis. Safety laboratory tests were drawn at pre-dose and at 5, 24, 36 and 144-hours post-dose for 60–400 mg Cohorts; and at 24, 48, 72 and 144-hours post-dose for the 600 mg and Food Effect Cohort. ECG assessments were conducted at pre-dose and at 1, 2, 3, 5, 9, 24, 36 and 144-hours post-dose for 60–400 mg Cohorts; and at 2, 3, 5, 9, 24, 36, 72 and 144-hours post-dose for the 600 mg and Food Effect Cohort. All adverse events (AEs) were assessed by the investigator for severity and relationship to study medication or study procedures.
All AEs were coded using the Medical Dictionary for Regulatory Activities (MedDRA) version 22.0. All AEs were listed, and the emergence of TEAEs were categorized by body system affected and analyzed to determine whether they were related to treatment. Analysis of TEAEs for VU319 vs. Placebo were completed using Fisher’s Exact Test. Assessment of the grade of toxicity or relation to the study drug for each adverse event was determined by the Investigator. Changes in vital signs, physical examination, and laboratory tests were collected. Changes in vital signs from pre-dose to 48 h post-dose were placed into 10-time bins and assessed using mixed-measures ANOVA with the time bins as the within-subjects factor and dose as the between-subjects factor. To assess changes is QT analyses with respect to VU319 concentration, we calculated the maximal change in QTcF from baseline for each participant. We assessed the relationship between these maximal changes from baseline with the participant’s Cmax using Pearson correlations. Outlier QTcF values (> 450 ms) were also assessed against PK concentrations to examine it there was any relationship using Pearson correlations. Analyses of safety data was completed by SAS version 9.4.

healthy participants [2] = experiment: Visual oddball ERP task; type: in vivo, human; conditions: for Mean amplitude over the parietal cortex, Visual Oddball, Standard trials / Mean amplitude over the parietal cortex, Visual Oddball, Target trials: mean (SD)
Method: Following the cognitive battery, an electrophysiology recording was set up. Visual and auditory ERPs were recorded using a 128-channel Geodesic sensor net (EGI, Inc., Eugene, OR; [37, 38]). The electrophysiological recording was sampled at 250 Hz with filters set at 0.1–100 Hz. During data collection, all electrodes were referenced to vertex (Cz). The recording session lasted approximately 30 min.
Auditory and visual oddball tasks were performed to assess attention in auditory and visual modalities. In the auditory task, a pair of two pure tones (single formant) at 1000 and 1500 Hz were the stimuli. In the visual task, the stimuli were a pair of letters (X & O). The assignment of stimuli to standard and target conditions (70% & 30% of the trials respectively), was counterbalanced across participants. Each participant was asked to press a different button using their preferred hand upon presentation of the standard and the target stimulus. On average, auditory and visual tasks lasted 6–7 min each.
ERP processing and Analysis: Single-trial ERPs were derived by extracting a 100-ms pre-stimulus baseline and a 900 ms post-stimulus interval. The trials were screened for ocular and motor artifacts using automated procedures with standard threshold settings (NetStation 4.4, EGI, Inc) and verified using manual review. Data for electrodes characterized by consistent artifacts were replaced using the spherical spline interpolation algorithm. If more than 15 electrodes within a trial were noisy, the entire trial was discarded. Remaining artifact-free trials were averaged separately for each condition (standard vs. oddball; novel vs. repeated images), re-referenced to an average reference, and baseline corrected. For individual participant’s data to be included in the analysis, each condition average had to have a minimum of 10 artifact-free trials.
Statistical analysis focused on a priori selected electrode clusters corresponding to frontal, central, and parietal midline locations (Fz, Cz, Pz in 10–20 notation), confirmed using spatial principal components analysis. Mean amplitudes were calculated within 250–400 ms (frontal P3a), 300–500 ms (parietal P300), and 500–800 ms (parietal P600) temporal windows. These a-priori selected windows were confirmed using temporal principal components analysis.
Analyses for the auditory and visual oddball ERPs focused on the parietal (P300) and frontal (P3a) responses to standard and target stimuli. Differences in the amplitude, latency, and scalp topography of the responses were examined. […] For the incidental memory paradigm, differences in the mean amplitude of the parietal P300/P600 responses to repeated vs. novel presentations. The amplitude of the parietal P300/P600 waveform measures stimulus recognition. A larger positive amplitude for repeated compared to novel images indicates spontaneous formation of a memory trace.
Auditory and visual oddball tasks were performed to assess attention in auditory and visual modalities (Comerchero & Polich, 1999; Polich, 2007). In the auditory task, a pair of two pure tones (single formant) at 1000 and 1500 Hz were the stimuli. Tones were equated in duration (300 ms) and rise/decay times. Tones were presented at 75 dB SPL (measured at the ear) through a speaker positioned 1 meter in front of the participant. In the visual task, the stimuli were a pair of letters (X & O). All stimuli were presented in random order for 500 ms in the center of a computer monitor positioned 1 meter in front of the participant. For both auditory and visual tasks, 200 trials were presented with the inter-stimulus interval varying randomly between 1000-1300 ms to prevent habituation to stimulus onset. The assignment of stimuli to standard and target conditions (70% & 30% of the trials respectively), was counterbalanced across participants. […]

[3] = SAD study, 120mg, Post-Drug, n = 5
[4] = SAD study, 120mg, Pre-Drug, n = 5
[5] = SAD study, 240mg, Post-Drug, n = 5
[6] = VU319 120 mg, fasting, post-drug session, n = 9
[7] = VU319 120 mg, fasting, pre-drug session, n = 9
[8] = VU319 120 mg, fed, pre-drug session, n = 9

Question: Cn1cc2c(-c3cc(F)c(CN4Cc5ncccc5C4=O)c(F)c3)cccc2n1 [VU319] was tested. Which “TEAEs, VU319 vs placebo (Fisher's Exact Tests)” value (healthy participants [1]; in vivo) did it give?
Answer: did not show a significant difference

Question: What about the “number of TEAEs across the 5 active dose cohorts” value (healthy participants [1]; in vivo) of the same molecule?
Answer: 33

Question: And the “serious TEAEs, deaths, discontinuations” value (healthy participants [1]; single oral doses 60-600 mg)?
Answer: No TEAE was rated as serious; also recorded: no serious TEAEs or discontinuations occurred; also recorded: no deaths, serious TEAEs, or TEAEs leading to discontinuation

Question: And the tolerability (healthy participants [1]; single oral doses 60 to 600 mg, healthy volunteers aged 18-55)?
Answer: Tolerability was good; also recorded: generally well tolerated

Question: What about the “maximum tolerated dose (MTD)” value (healthy participants [1]; single oral doses up to 600 mg) of the same molecule?
Answer: not achieved

Question: And the “Visual oddball P300 amplitude, targets vs standards” value (healthy participants [2]; 120 mg, fasted condition)?
Answer: no difference

Question: What about the “Visual oddball P300 amplitude, targets vs standards, effect size d” value (healthy participants [2]; 120 mg, fed, post-dose session, p = 0.061) of the same molecule?
Answer: 0.73

Question: And the “Visual oddball P300 amplitude, targets vs standards, effect size d” value (healthy participants [2]; 120 mg, fed, pre-dose session, p = 0.039)?
Answer: 0.82

Question: What about the “Visual oddball parietal amplitude, target vs standard, post- vs pre-dose, effect size d” value (healthy participants [2]; 400 mg, p = 0.05) of the same molecule?
Answer: 1.28

Question: And the “Visual oddball parietal amplitude, target vs standard, post- vs pre-dose effect” value (healthy participants [2]; 600 mg, t < 1)?
Answer: not found

Question: What about the “Mean amplitude over the parietal cortex, Visual Oddball, Standard trials” value (healthy participants [2]; SAD study, 60 mg, Post-Drug) of the same molecule?
Answer: -0.66 (1.57) µV

Question: And the “Mean amplitude over the parietal cortex, Visual Oddball, Target trials” value (healthy participants [2]; SAD study, 60 mg, Post-Drug)?
Answer: 1.36 (0.91) µV

Question: And the “Mean amplitude over the parietal cortex, Visual Oddball, Standard trials” value (healthy participants [2]; SAD study, 60 mg, Pre-Drug)?
Answer: -0.13 (1.23) µV

Question: And the “Mean amplitude over the parietal cortex, Visual Oddball, Target trials” value (healthy participants [2]; SAD study, 60 mg, Pre-Drug)?
Answer: 1.19 (1.9) µV

Question: And the “Mean amplitude over the parietal cortex, Visual Oddball, Standard trials” value (healthy participants [2]; [3])?
Answer: 0.01 (1.05)^# µV

Question: What about the “Mean amplitude over the parietal cortex, Visual Oddball, Target trials” value (healthy participants [2]; [3]) of the same molecule?
Answer: 1.5 (1.26)^# µV

Question: What about the “Mean amplitude over the parietal cortex, Visual Oddball, Standard trials” value (healthy participants [2]; [4]) of the same molecule?
Answer: 0.99 (1.12)^# µV

Question: And the “Mean amplitude over the parietal cortex, Visual Oddball, Target trials” value (healthy participants [2]; [4])?
Answer: 2.71 (1.58)^# µV

Question: What about the “Mean amplitude over the parietal cortex, Visual Oddball, Standard trials” value (healthy participants [2]; [5]) of the same molecule?
Answer: 1.02 (1.44)^# µV

Question: What about the “Mean amplitude over the parietal cortex, Visual Oddball, Target trials” value (healthy participants [2]; [5]) of the same molecule?
Answer: 2.2 (2.28)^# µV

Question: And the “Mean amplitude over the parietal cortex, Visual Oddball, Standard trials” value (healthy participants [2]; SAD study, 240 mg, Pre-Drug)?
Answer: 0.32 (1.04) µV

Question: What about the “Mean amplitude over the parietal cortex, Visual Oddball, Target trials” value (healthy participants [2]; SAD study, 240 mg, Pre-Drug) of the same molecule?
Answer: 1.93 (1.88) µV

Question: And the “Mean amplitude over the parietal cortex, Visual Oddball, Standard trials” value (healthy participants [2]; SAD study, 400 mg, Post-Drug)?
Answer: 1.48 (0.73) µV

Question: And the “Mean amplitude over the parietal cortex, Visual Oddball, Target trials” value (healthy participants [2]; SAD study, 400 mg, Post-Drug)?
Answer: 2.7 (1.92) µV

Question: And the “Mean amplitude over the parietal cortex, Visual Oddball, Standard trials” value (healthy participants [2]; SAD study, 400 mg, Pre-Drug)?
Answer: 1.04 (1.03) µV

Question: What about the “Mean amplitude over the parietal cortex, Visual Oddball, Target trials” value (healthy participants [2]; SAD study, 400 mg, Pre-Drug) of the same molecule?
Answer: 1.75 (1.5) µV

Question: And the “Mean amplitude over the parietal cortex, Visual Oddball, Standard trials” value (healthy participants [2]; SAD study, 600 mg, Post-Drug)?
Answer: 1.47 (1.1) µV

Question: What about the “Mean amplitude over the parietal cortex, Visual Oddball, Target trials” value (healthy participants [2]; SAD study, 600 mg, Post-Drug) of the same molecule?
Answer: 3.1 (2.23) µV

Question: What about the “Mean amplitude over the parietal cortex, Visual Oddball, Standard trials” value (healthy participants [2]; SAD study, 600 mg, Pre-Drug) of the same molecule?
Answer: 1.46 (2.51) µV

Question: What about the “Mean amplitude over the parietal cortex, Visual Oddball, Target trials” value (healthy participants [2]; SAD study, 600 mg, Pre-Drug) of the same molecule?
Answer: 3.46 (2.31) µV

Question: And the “Mean amplitude over the parietal cortex, Visual Oddball, Standard trials” value (healthy participants [2]; [6])?
Answer: -0.16 (1.73) µV

Question: What about the “Mean amplitude over the parietal cortex, Visual Oddball, Target trials” value (healthy participants [2]; [6]) of the same molecule?
Answer: 0.72 (3.1) µV

Question: What about the “Mean amplitude over the parietal cortex, Visual Oddball, Standard trials” value (healthy participants [2]; [7]) of the same molecule?
Answer: -0.16 (1.28) µV

Question: And the “Mean amplitude over the parietal cortex, Visual Oddball, Target trials” value (healthy participants [2]; [7])?
Answer: 0.71 (1.6) µV

Question: What about the “Mean amplitude over the parietal cortex, Visual Oddball, Standard trials” value (healthy participants [2]; VU319 120 mg, fed, post-drug session, n = 9) of the same molecule?
Answer: 0.25 (0.62) µV

Question: And the “Mean amplitude over the parietal cortex, Visual Oddball, Standard trials” value (healthy participants [2]; [8])?
Answer: -0.29 (1.17) µV

Question: What about the “Mean amplitude over the parietal cortex, Visual Oddball, Target trials” value (healthy participants [2]; [8]) of the same molecule?
Answer: 0.91 (1.49) µV
